PubChem BioAssay (NCI)
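Exposure lasted 48 hours, with cells grown in 96-well plates and compounds tested at five concentrations. GI50 marks 50% less growth. TGI: total growth inhibition.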

How the values were obtained:
Experiment in all cases: growth of human tumour cells (NCI), 48 h
[1] = tested on: MALME-3M melanoma
[2] = tested on: IGROV1 ovarian
[3] = tested on: SF-295 CNS
[4] = tested on: U251 CNS
[5] = tested on: UO-31 renal
[6] = tested on: NCI-H522 lung
[7] = tested on: HCT-116 colon
[8] = tested on: SW-620 colon
[9] = tested on: COLO 205 colon
[10] = tested on: HT29 colon
[11] = tested on: K-562 leukemia
[12] = tested on: SK-OV-3 ovarian
[13] = tested on: NCI-H23 lung
[14] = tested on: 786-0 renal
[15] = tested on: HS 578T breast
[16] = tested on: MCF7 breast
[17] = tested on: SF-539 CNS
[18] = tested on: RXF 393 renal
[19] = tested on: KM12 colon
[20] = tested on: SK-MEL-28 melanoma
[21] = tested on: A549 NSCLC
[22] = tested on: DU-145 prostate
[23] = tested on: RPMI-8226 leukemia
[24] = tested on: BT-549 breast
[25] = tested on: HL-60(TB) leukemia
[26] = tested on: SR leukemia
[27] = tested on: HOP-92 NSCLC
[28] = tested on: MOLT-4 leukemia
[29] = tested on: NCI-H226 lung
[30] = tested on: OVCAR-8 ovarian
[31] = tested on: HCC-2998 colon
[32] = tested on: MDA-MB-435
[33] = tested on: SNB-19 CNS
[34] = tested on: UACC-62 melanoma
[35] = tested on: T-47D breast
[36] = tested on: UACC-257 melanoma
[37] = tested on: CAKI-1 renal
[38] = tested on: HOP-62 NSCLC
[39] = tested on: OVCAR-3 ovarian
[40] = tested on: CCRF-CEM leukemia
[41] = tested on: MDA-MB-468 breast
[42] = tested on: EKVX NSCLC
[43] = tested on: PC-3 prostate
[44] = tested on: A498 renal
[45] = tested on: HCT-15 colon
[46] = tested on: SN12C renal
[47] = tested on: NCI-H460 lung
[48] = tested on: LOX IMVI melanoma
[49] = tested on: ACHN renal
[50] = tested on: MDA-MB-231 breast
[51] = tested on: TK-10 renal
[52] = tested on: SNB-75 CNS
[53] = tested on: SK-MEL-5 melanoma
[54] = tested on: OVCAR-4 ovarian
[55] = tested on: OVCAR-5 ovarian
[56] = tested on: SF-268 CNS
[57] = tested on: M14 melanoma

Cc1ccc(NC(=O)[C@]23CCC(C)(C)CC2C2=CCC4[C@@]5(C)C[C@@H](O)[C@H](O)[C@@](C)(CO)C5CC[C@@]4(C)[C@]2(C)CC3)cc1 (some centres undefined)
GI50 [1]: 12.1 µM
TGI [1]: 25.1 µM
GI50 [2]: 11.1 µM
TGI [2]: 23.8 µM
GI50 [3]: 8.28 µM
TGI [3]: 21.4 µM
GI50 [4]: 12.8 µM
TGI [4]: 25.5 µM
GI50 [5]: 3.54 µM
TGI [5]: 17 µM
GI50 [6]: 12.9 µM
TGI [6]: 26.6 µM
GI50 [7]: 7.24 µM
TGI [7]: 20 µM
GI50 [8]: 12.5 µM
TGI [8]: 27.5 µM
GI50 [9]: 12.1 µM
TGI [9]: 27.5 µM
GI50 [10]: 7.44 µM
TGI [10]: 20.1 µM
GI50 [11]: 12.1 µM
TGI [11]: 87.6 µM
GI50 [12]: 13.9 µM
TGI [12]: 34 µM
GI50 [13]: 12.7 µM
TGI [13]: 26.8 µM
GI50 [14]: 12.8 µM
TGI [14]: 26.4 µM
GI50 [15]: 12.4 µM
TGI [15]: 48.6 µM
GI50 [16]: 4.12 µM
TGI [16]: 15.5 µM
GI50 [17]: 12.7 µM
TGI [17]: 25.6 µM
GI50 [18]: 2.9 µM
TGI [18]: 11.6 µM
GI50 [19]: 12.8 µM
TGI [19]: 28.2 µM
GI50 [20]: 13 µM
TGI [20]: 26 µM
GI50 [21]: 12.9 µM
TGI [21]: > 100 µM
GI50 [22]: 15.2 µM
TGI [22]: 32.6 µM
GI50 [23]: 4.79 µM
TGI [23]: 25.8 µM
GI50 [24]: 12.4 µM
TGI [24]: 25.4 µM
GI50 [25]: 5.44 µM
TGI [25]: 36.5 µM
GI50 [26]: 5.58 µM
TGI [26]: > 100 µM
GI50 [27]: 8.43 µM
TGI [27]: 23.1 µM
GI50 [28]: 6.88 µM
TGI [28]: 50.7 µM
GI50 [29]: 11 µM
TGI [29]: 23.8 µM
GI50 [30]: 14.2 µM
TGI [30]: 35.5 µM
GI50 [31]: 6.91 µM
TGI [31]: 21 µM
GI50 [32]: 11.5 µM
TGI [32]: 23.7 µM
GI50 [33]: 16.5 µM
TGI [33]: 43.4 µM
GI50 [34]: 6.8 µM
TGI [34]: 20.6 µM
GI50 [35]: 6.94 µM
TGI [35]: 20.6 µM
GI50 [36]: 12.9 µM
TGI [36]: 27.5 µM
GI50 [37]: 5.1 µM
TGI [37]: 20.4 µM
GI50 [38]: 14.3 µM
TGI [38]: 29.1 µM
GI50 [39]: 13.5 µM
TGI [39]: 27.3 µM
GI50 [40]: 11.1 µM
TGI [40]: 38.9 µM
GI50 [41]: 4.52 µM
TGI [41]: 18.1 µM
GI50 [42]: 9.25 µM
TGI [42]: 23.9 µM
GI50 [43]: 5.46 µM
TGI [43]: 21.5 µM
GI50 [44]: 14.1 µM
TGI [44]: 27.4 µM
GI50 [45]: 6.9 µM
TGI [45]: 19.9 µM
GI50 [46]: 10.9 µM
TGI [46]: 23.1 µM
GI50 [47]: 10.5 µM
TGI [47]: 23.1 µM
GI50 [48]: 5.27 µM
TGI [48]: 19.1 µM
GI50 [49]: 10.4 µM
TGI [49]: 22.1 µM
GI50 [50]: 12.2 µM
TGI [50]: 26.1 µM
GI50 [51]: 16.3 µM
TGI [51]: 32 µM
GI50 [52]: 1.88 µM
TGI [52]: 31.4 µM
GI50 [53]: 6.45 µM
TGI [53]: 19.3 µM
GI50 [54]: 7.81 µM
TGI [54]: 23.3 µM
GI50 [55]: 12.8 µM
TGI [55]: 25.7 µM
GI50 [56]: 10.2 µM
TGI [56]: 32.2 µM
GI50 [57]: 12.4 µM
TGI [57]: 25.2 µM
